In patent US5800838A, “Composition that inhibits or destroys at least one unicellular living organism containing fluorine F- and Lithium li+” (priority 1987, dated 1998):
Converted amounts (≈) assume the structure as drawn. Like-named read-outs stand apart in the source and are kept apart here.

Tests used:
Staphylococcus aureus [1] = conditions: A (tetracycline) in presence of B (Fli)
Procedure: (§9) Concentration series of two antibiotic substances A and B are prepared in the geometric ratio of 2 are combined and the following values are determined:
(§10) MIC B/A = minimal inhibiting concentration B in presence of A [formula]
(§11) The MIC of the bacteriostatic effect is read when the percentage of surviving strains is less or equal to 1%.
(§12) The combination of the substances A and B is synergistic as regards the bacteriostatic effect when FIC≤0,75. The combination is additive when FIC=1. The combination is insensible when 1<FIC≤2. The combination is antagonistic when FIC>2.
(§13) Substance A was tetracycline (concentration serie from 0,25 to 128 mg/l)
(§14) Substance B was Fli (concentration serie from 0,25 to 16 mg/l)
(§15) The strain was staphylococcus aureus (wild-type hospital resistant strain)

Staphylococcus aureus [2] = assay: microbe, parasite or virus in culture; conditions: read-out: MIC alone (MIC A, MIC B)
Procedure: as §9, §10, §11, §12, §13, §14, §15

Klebsiella pneumoniae [3] = assay: microbe, parasite or virus in culture
Procedure: The MIC of tetracycline was studied on Klebsiella pneumoniae (wild-type hospital strain).
The trial was conducted with tetracycline alone, tetracycline in presence of FNa and tetracycline in presence of Fli.

Klebsiella pneumoniae [4] = tested on: Klebsiella pneumoniae
streptococcus group F = assay: Phenotype of resistant wild-type hospital strains with activated antibiotics (Example 35); type: cell-based; conditions: Fli 4 ppm
Procedure: Strains Gram+ and Gram- (wild-type hospital) having a resistant phenotype vis a vis standard firstly and secondly used antibiotherapy were experimented on activated antibiotics.
250 experiments were conducted on the following strains: Streptococcus group B, C, D, F, G, Staphylococcus aureus, Staphylococcus epidermitis, Klebsiella pneumoniae, Klebsiella spirochete, Klebsiella oxytoca, Proteus mirabilis, Serratia marcescens, Escherichia coli, Citrobacter freundii, Enterobacter cloacae, Enterobacter calcoaceticus, Salmonella spirochete, Salmonella typhimurium, Pseudomonas aeruginosa, Haemophilus influenzae, Haemophilus sphrophilus, Acinetobacter calcoaeticus. […]

Group C streptococcus = assay: Activity on wild-type hospital strains responsible for skin infections; type: cell-based
Escherichia coli = assay: as above; type: cell-based
Staphylococcus aureus [5] = assay: as above; type: cell-based
Pseudomonas aeruginosa [6] = assay: MIC of gentamicine, inclined agar with concentration gradient; type: cell-based; conditions: in presence of Fli at 16; RESISTANT strains
Procedure: (§1) The strains used were wild-type hospital strains having a resistant phenotype as regards gentamicine: pseudomonas aeruginosa, proteus mirabilis, serratia marcescens.
(§2) The phenotype of the strains was determined by diffusion in gradient on selective agar. Then, each group of strains having the same phenotype (resistant or sensible) was seeded on inclined agar having a gradient of concentration of the composition.
(§3) This methodology is explained by SZYBALSKI and BRYSON in "Selection de mutants resistant aux antibiotiques", L'antibiogramme, Vigot, p. 259-260.
(§4) The results are shown in the following table illustrating the MIC of gentamicine (aminoglycoside antibiotic).
(§5) x/y means a concentration read between x ppm and y ppm.

serratia marcescens [7] = assay: as above; type: cell-based
Procedure: as §1, §2, §3, §4, §5

proteus mirabilis = assay: "chess" test, dilution in liquid medium, Trial 2; type: cell-based
Description: (§6) Substance A was gentamicine
The strain was a very resistant proteus mirabilis (wild-type hospital)

Klebsiella pneumoniae [8] = assay: "chess" test, dilution in liquid medium, Trial 3; type: cell-based
Description: as §6
The strain was Klebsiella pneumoniae (wild-type hospital strain)

Pseudomonas aeruginosa [9] = assay: "chess" test, dilution in liquid medium, Trial 4; type: cell-based
Description: as §6
The strain was pseudomonas aeruginosa (wild-type hospital resistant strain)

[10] = tested on: pseudomonas aeruginosa and Escherichia coli; type: cell-based
Description: It is known that a strain develops a resistance against an antibiotic substance with which it is left in contact, by a phenotypical mutation procedure.
This phenomena has been studied on pseudomonas aeruginosa and Escherichia coli (wild-type hospital strains) which commonly develop resistance against aminosides. The antibiotic substance choosen was thus gentamicine which is an aminoside antibiotic.
And the growth of the resistance was studied with gentamicine alone, then with gentamicine in presence of Fli.
The trial was conducted on 12 days, and the MIC of gentamicine alone and of gentamicine in presence of Fli (4 ppm) was determined each day on transportplates in liquid medium with a serie of dilution in Mueller/Hinton agar.
The MBC (Minimal Bactericide Concentration) was also determined from the solution after determination of the MIC seeded on agar adapted to the strain. The MBC is read for a percentage of survivors less than 0,20%.

salmonella spirochete = assay: "Time killing curve", optical density at 600 nm; type: cell-based; conditions: Fli 32 ppm
Procedure: (§7) The kinetics of the bacterial growth of serratia marcescens and salmonella spirochete has been studied with the "Time killing curve" methodology, for gentamicine (64 ppm) alone, Fli (32 ppm) and gentamicine (64 ppm) in presence of Fli (32 ppm). The bacterial growth is determined by spectrophotometric reading of the optical density for a wavelength of 600 nm.
(§8) The following table illustrates the optical density (1/100) obtained: […]

serratia marcescens [11] = assay: "Time killing curve", optical density at 600 nm; type: cell-based; conditions: Fli 32 ppm
Procedure: as §7, §8

[12] = read-out: 100% inhibitory concentration, alone
[13] = A (gentamicine) in presence of B (Fli)

## CN(C)C1C(=O)C(C(N)=O)=C(O)C2(O)C(=O)C3=C(O)c4c(O)cccc4C(C)(O)C3CC12 (centres unmarked) [TETRACYCLINE, tetracycline]
Staphylococcus aureus [1]
  MIC A/B: 4 µg/mL
Staphylococcus aureus [2]
  MIC: 32 µg/mL (≈ 72 µM)
Klebsiella pneumoniae [3]
  MIC: 512 µg/mL (≈ 1150 µM)
Haemophilus influenzae; [12]
  MIC: 4 to 8 µg/mL (≈ 9 to 18 µM)
Haemophilus influenzae; read-out: 100% inhibitory concentration, in the presence of LiF 4 ppm
  MIC: 2 to 4 µg/mL
Klebsiella pneumoniae [4]; [12]
  MIC: 0.5 µg/mL (≈ 1.13 µM)
Klebsiella pneumoniae [4]; read-out: 100% inhibitory concentration, in the presence of LiF 2 ppm
  MIC: 0.25 µg/mL

## CC1(C)S[C@@H]2[C@H](NC(=O)Cc3ccccc3)C(=O)N2[C@H]1C(=O)O [penicilline group G]
Streptococcus group F
  phenotype in presence of Fli: the insensible phenotype was not changed

## POLYMIXIN B
Group C streptococcus; alone
  100% inhibitory concentration: > 128 ppm
Group C streptococcus; in the presence of LiF 8 ppm
  100% inhibitory concentration: 64 ppm
Escherichia coli; alone
  100% inhibitory concentration: > 128 ppm
Escherichia coli; in the presence of LiF 2 ppm
  100% inhibitory concentration: 64 ppm
Staphylococcus aureus [5]; alone
  100% inhibitory concentration: > 128 ppm
Staphylococcus aureus [5]; in the presence of LiF 2 ppm
  100% inhibitory concentration: 64 ppm

## gentamicine
Pseudomonas aeruginosa [6]
  MIC: 64 ppm or mg/l
Serratia marcescens [7]; in presence of Fli at 8, SENSIBLE strains
  MIC: 8 ppm or mg/l
Serratia marcescens [7]; in presence of Fli at 16, RESISTANT strains
  MIC: 32 ppm or mg/l
Proteus mirabilis; [13]
  MIC A/B: 16 µg/mL
Proteus mirabilis; alone, very resistant wild-type hospital strain
  MIC alone (MIC A, MIC B): 64 µg/mL
Klebsiella pneumoniae [8]; [13]
  MIC A/B: 4 µg/mL
Klebsiella pneumoniae [8]; alone, wild-type hospital strain
  MIC alone (MIC A, MIC B): 16 µg/mL
Pseudomonas aeruginosa [9]; [13]
  MIC A/B: 16 µg/mL
Pseudomonas aeruginosa [9]; alone, wild-type hospital resistant strain
  MIC alone (MIC A, MIC B): 64 µg/mL
[10]; gentamicine alone
  day the resistance appears: the third or fourth day
[10]; gentamicine with Fli (4 ppm)
  day the resistance appears: the fourth or sixth day
Salmonella spirochete; 3 h 00, gentamicine 64 ppm
  optical density (1/100): 8 1/100
Salmonella spirochete; 6 h 00, gentamicine 64 ppm
  optical density (1/100): 7 1/100
Serratia marcescens [11]; 6 h 00, gentamicine 64 ppm
  optical density (1/100): 5 1/100
Serratia marcescens [11]; 24 h 00, gentamicine 64 ppm
  optical density (1/100): 4 1/100
